Measured values published in PubChem BioAssay (NCI).
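The compound was tested at five concentrations on cells cultured in 96-well plates, with a 48-hour exposure period. The concentration for 50% growth inhibition is given as GI50. TGI marks complete inhibition of growth.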

Legend:
Experiment in all cases: growth of human tumour cells (NCI), 48 h
UACC-62 melanoma = tested on: UACC-62 melanoma
SNB-75 CNS = tested on: SNB-75 CNS
NCI-H522 lung = tested on: NCI-H522 lung
A549 NSCLC = tested on: A549 NSCLC
HCC-2998 colon = tested on: HCC-2998 colon
COLO 205 colon = tested on: COLO 205 colon
SK-MEL-28 melanoma = tested on: SK-MEL-28 melanoma
SR leukemia = tested on: SR leukemia
UO-31 renal = tested on: UO-31 renal
SK-MEL-5 melanoma = tested on: SK-MEL-5 melanoma
PC-3 prostate = tested on: PC-3 prostate
OVCAR-5 ovarian = tested on: OVCAR-5 ovarian
786-0 renal = tested on: 786-0 renal
SW-620 colon = tested on: SW-620 colon
SN12C renal = tested on: SN12C renal
HOP-92 NSCLC = tested on: HOP-92 NSCLC
HL-60(TB) leukemia = tested on: HL-60(TB) leukemia
ACHN renal = tested on: ACHN renal
SF-295 CNS = tested on: SF-295 CNS
HT29 colon = tested on: HT29 colon
SK-OV-3 ovarian = tested on: SK-OV-3 ovarian
OVCAR-8 ovarian = tested on: OVCAR-8 ovarian
MALME-3M melanoma = tested on: MALME-3M melanoma
DU-145 prostate = tested on: DU-145 prostate
TK-10 renal = tested on: TK-10 renal
MDA-MB-231 breast = tested on: MDA-MB-231 breast
HCT-116 colon = tested on: HCT-116 colon
CAKI-1 renal = tested on: CAKI-1 renal
K-562 leukemia = tested on: K-562 leukemia
NCI-H460 lung = tested on: NCI-H460 lung
MDA-MB-435 = tested on: MDA-MB-435
OVCAR-3 ovarian = tested on: OVCAR-3 ovarian
OVCAR-4 ovarian = tested on: OVCAR-4 ovarian
A498 renal = tested on: A498 renal
HCT-15 colon = tested on: HCT-15 colon

With `OC(c1cc2ccc(C(F)(F)F)cc2c2cc(C(F)(F)F)ccc12)C1CCCCN1` (stereo not given) the TGI (UACC-62 melanoma) was 3.49 µM, the TGI (SNB-75 CNS) was 2570 nM and the TGI (NCI-H522 lung) was 3.16 µM. The TGI (A549 NSCLC) was 3.26 µM, the TGI (HCC-2998 colon) was 2620 nM and the TGI (COLO 205 colon) was 3.05 µM. For the same compound, the TGI (SK-MEL-28 melanoma) was 3.36 µM, the TGI (SR leukemia) was 4.99 µM and the TGI (UO-31 renal) was 2710 nM. For the same compound, the TGI (SK-MEL-5 melanoma) was 2890 nM, the TGI (PC-3 prostate) was 2920 nM and the TGI (OVCAR-5 ovarian) was 3.18 µM. For the same compound, the TGI (786-0 renal) was 2980 nM, the TGI (SW-620 colon) was 2840 nM and the TGI (SN12C renal) was 3.26 µM. It also gave a TGI (HOP-92 NSCLC) of 3.19 µM, a TGI (HL-60(TB) leukemia) of over 100 µM and a TGI (ACHN renal) of 2620 nM. For the same compound, the GI50 (SF-295 CNS) was 1830 nM, the TGI (SF-295 CNS) was 3.41 µM and the TGI (HT29 colon) was 3.4 µM. It also gave a TGI (SK-OV-3 ovarian) of 3.82 µM, a GI50 (OVCAR-8 ovarian) of 1860 nM and a TGI (OVCAR-8 ovarian) of 3.74 µM. It also gave a TGI (MALME-3M melanoma) of 1500 nM, a TGI (DU-145 prostate) of 3210 nM and a TGI (TK-10 renal) of 3.71 µM. The TGI (MDA-MB-231 breast) was 3.2 µM, the TGI (HCT-116 colon) was 2800 nM and the TGI (CAKI-1 renal) was 3130 nM.
For `CNc1ccc(C(=O)CC(O)CCC(C)C2OC(=O)CC(O)CC(=O)CC(O)CC(O)CC(O)CC(O)CC3(O)CC(O)C(C(=O)NCCN4CCCCC4)C(CC(OC4OC(C)C(O)C(N)C4O)/C=C/C=C/C=C/C=C\C=C/C=C/C=C/C2C)O3)cc1` (stereo not given), the TGI (HL-60(TB) leukemia) was over 100 µM and the TGI (K-562 leukemia) was over 100 µM.
For `C=C(CNCCc1ccc(O)cc1)[C@@H]1CC[C@]2(COC3CCCCO3)CC[C@]3(C)[C@H](CC[C@@H]4[C@@]5(C)CCC(NCCO)C(C)(C)[C@@H]5CC[C@]43C)[C@@H]12` (stereo not given in full), the GI50 (NCI-H460 lung) was 339 nM, the TGI (NCI-H460 lung) was 1070 nM and the GI50 (MDA-MB-435) was 1350 nM. For the same compound, the TGI (MDA-MB-435) was 2650 nM, the GI50 (OVCAR-5 ovarian) was 1670 nM and the TGI (OVCAR-5 ovarian) was 3.13 µM. The GI50 (OVCAR-3 ovarian) was 1280 nM, the TGI (OVCAR-3 ovarian) was 2770 nM and the GI50 (SW-620 colon) was 211 nM. It also gave a TGI (SW-620 colon) of 453 nM, a GI50 (ACHN renal) of 1640 nM and a TGI (ACHN renal) of 3040 nM. For the same compound, the GI50 (OVCAR-4 ovarian) was 1390 nM, the TGI (OVCAR-4 ovarian) was 2820 nM and the GI50 (A498 renal) was 1330 nM. It also gave a TGI (A498 renal) of 2720 nM, a GI50 (DU-145 prostate) of 1250 nM and a TGI (DU-145 prostate) of 2580 nM. It also gave a GI50 (HCT-15 colon) of 390 nM, a TGI (HCT-15 colon) of 1490 nM and a GI50 (CAKI-1 renal) of 1520 nM. It also gave a TGI (CAKI-1 renal) of 2860 nM.
For `Cc1cn(-c2cc(F)cc(NC(=O)c3ccc(C)c(Nc4nccc(-c5cccnc5)n4)c3)c2)cn1`, the GI50 (SK-MEL-5 melanoma) was over 100 µM, the TGI (SK-MEL-5 melanoma) was over 100000 nM and the GI50 (HL-60(TB) leukemia) was over 100 µM. For the same compound, the TGI (HL-60(TB) leukemia) was over 100 µM, the GI50 (A498 renal) was over 100000 nM and the TGI (A498 renal) was over 100000 nM.
